The term melting point denotes the temperature, or range, at which the solid turns liquid. On to `Oc1ccc(C2CCCC2)c(O)c1` [Form A, 4-cyclopentyl resorcinol], for which the melting point was in the range of 65 to 66.5 °C.

These data come from US7390838B2, “Depigmenting agents” (Pfizer Inc., priority 2003, dated 2008).
